Tested on: KRAS patient-derived spheroids with HUVEC/MSC, viability
Assay: Anticancer human tumor 519858-162-T-J1-PDC patient-derived colon adenocarcinoma cell line growth inhibition [KRAS2]
Settings: for IC50: curve of first compound; for viability, T/C: stronger effect = lower value
In short: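 KRAS-mutant tumor cells were grown as spheroids with HUVEC endothelial cells and human MSCs as stroma. Targeted agents were tested alone and with KRAS pathway inhibitors. Doses started at or near clinical Cmax, or 10 microM, descending half-log.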
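Note: compound exposure lasted seven days before readout.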
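Throughout, for viability, T/C: 100% = DMSO vehicle control viability.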

Compound: COc1cc(Nc2ncc3c(n2)-c2ccc(Cl)cc2C(c2c(F)cccc2OC)=NC3)ccc1C(=O)O + CNCc1ccccc1-c1csc(C(C)Nc2nc(C)nc3cc(OC)c(OC)cc23)c1
- IC50 (second compound 0.1 µM): > 10 µM
- IC50 (second compound 0.316 µM): > 10 µM
- IC50 (second compound 1 µM): > 10 µM
- IC50 (second compound 3.16 µM): > 10 µM
- IC50 (second compound 10 µM): < 0.0316 µM
- viability, T/C (second compound 0.1 µM, first compound 0.0316 µM): 95.9%
- viability, T/C (second compound 0.1 µM, first compound 0.1 µM): 93.5%
- viability, T/C (second compound 0.1 µM, first compound 0.316 µM): 79.1%
- viability, T/C (second compound 0.1 µM, first compound 1 µM): 85%
- viability, T/C (second compound 0.1 µM, first compound 3.16 µM): 88.4%
- viability, T/C (second compound 0.1 µM, first compound 10 µM): 103%
- viability, T/C (second compound 0.316 µM, first compound 0.0316 µM): 96.5%
- viability, T/C (second compound 0.316 µM, first compound 0.1 µM): 91.5%
- viability, T/C (second compound 0.316 µM, first compound 0.316 µM): 56.2%
- viability, T/C (second compound 0.316 µM, first compound 1 µM): 78.6%
- viability, T/C (second compound 0.316 µM, first compound 3.16 µM): 87.6%
- viability, T/C (second compound 0.316 µM, first compound 10 µM): 71.2%
- viability, T/C (second compound 1 µM, first compound 0.0316 µM): 77.2%
- viability, T/C (second compound 1 µM, first compound 0.1 µM): 78.2%
- viability, T/C (second compound 1 µM, first compound 0.316 µM): 73%
- viability, T/C (second compound 1 µM, first compound 1 µM): 70%
- viability, T/C (second compound 1 µM, first compound 3.16 µM): 71.2%
- viability, T/C (second compound 1 µM, first compound 10 µM): 62.1%
- viability, T/C (second compound 3.16 µM, first compound 0.0316 µM): 58.2%
- viability, T/C (second compound 3.16 µM, first compound 0.1 µM): 54.6%
- viability, T/C (second compound 3.16 µM, first compound 0.316 µM): 60.9%
- viability, T/C (second compound 3.16 µM, first compound 1 µM): 65.6%
- viability, T/C (second compound 3.16 µM, first compound 3.16 µM): 74.2%
- viability, T/C (second compound 3.16 µM, first compound 10 µM): 67.4%
- viability, T/C (second compound 10 µM, first compound 0.0316 µM): 0.42%
- viability, T/C (second compound 10 µM, first compound 0.1 µM): 0.37%
- viability, T/C (second compound 10 µM, first compound 0.316 µM): 0.36%
- viability, T/C (second compound 10 µM, first compound 1 µM): 0.31%
- viability, T/C (second compound 10 µM, first compound 3.16 µM): 0.37%
- viability, T/C (second compound 10 µM, first compound 10 µM): 0.84%

From PubChem BioAssay AID1963872 (Molecular Pharmacology Branch, DTP, NCI, 2024)
